{
  "source": "patent US20140309296A1",
  "about": "“BUDIODARONE FORMULATIONS” (Armetheon, Inc., priority 2013, published 2014)",
  "key": {"[1]": {"assay": "Solubility of budiodarone tartrate in water containing various amounts of benzyl alcohol (Example 3)", "assay_type": "physicochemical", "experimental": "Three series of samples were prepared. […] The vials were then capped and the mixtures were vortexed on a VWR Genie 2 vortexer at maximum speed for 3×10 sec duration. The final concentrations of budiodarone were 25 mg/ml, 50 mg/ml, and 100 mg/ml in water containing benzyl alcohol from 0.5% to 11% v/v. The vials were kept in the dark for 24 hours and analyzed by HPLC as per Example 1 Conditions 1.\nThe results are shown in FIG. 1, where the amount of budiodarone in solution is plotted as a function of the benzyl alcohol concentration. […] For example, at 25 mg/ml, budiodarone is soluble in approximately 1.5% to 4.5% v/v of benzyl alcohol. At 50 mg/ml, budiodarone is soluble in approximately 3% to 6% benzyl alcohol. At 100 mg/ml, budiodarone is soluble in approximately 4% to 8% benzyl alcohol."}, "[2]": {"assay": "Solubility of budiodarone tartrate and benzyl alcohol in solvents of different ionic strengths (Example 4)", "assay_type": "physicochemical", "details": "5/1 benzyl alcohol, nominal 25 mg/ml, 1 hour", "experimental": "To find out, five vials, each one containing budiodarone tartrate (200 mg, 0.234 mmoles) and benzyl alcohol (122 μl, 1.173 mmoles) were prepared. The molar ratio was therefore 5/1. To each of these vials was added 4 ml of water and the vials were vortexed, resulting in clear solutions containing 50 mg/ml of budiodarone tartrate and benzyl alcohol (molar ratio of 5/1). Then, 4 ml of one of the following solvents was added: 30 mM acetate buffer pH 5.2, 30 mM phosphate buffer saline pH 7.4, 30 mM Tris.HCl buffer pH 7.5, 1.8% sodium chloride (saline solution), and 10% dextrose solution (D10W) resulting in 15 mM concentration of buffer, 0.9% concentration of sodium chloride, and 5% concentration of dextrose (D5W), respectively.\nUpon addition of an ionic solvent, all the samples except the D5W sample became turbid. The vials were then vortexed at high speed (3×10 sec) and left to stand for 1 hour. Then they were vortexed again (3×10 sec) and a 1-ml aliquot from each vial was centrifuged at 13,000 rpm for 10 min. A small aliquot of the clear supernatant was diluted 25-fold with methanol and analyzed by HPLC (Conditions 3). The remaining concentrations of budiodarone in the samples were as follows: […]"}, "[3]": {"assay": "Low ratio of benzyl alcohol to budiodarone in water and 5% dextrose solution, stability (Example 9)", "assay_type": "physicochemical", "details": "2.14/1 molar ratio, 25 mg/ml, room temperature", "experimental": "The methanol was evaporated at 36° C. under partial vacuum (30 mmHg) to yield a thin film. To this residue was added 5 ml of water. The sample was then vortexed and a clear 25 mg/ml solution of budiodarone tartrate was obtained. A small aliquot was diluted 25 times with methanol and analyzed by HPLC (Sample 1). To the flask was then added 250 mg of D-(+)-glucose (also known as dextrose), resulting in a clear solution of 25 mg/ml budiodarone tartrate in 5% dextrose (D5W). A small sample was analyzed by HPLC (Sample 2).\nSample 2 is then analyzed over time to check physical and/or chemical stability in solution (Table 9)."}, "[4]": {"test_system": "subjects with paroxysmal atrial fibrillation who had implanted pacemakers", "details": "cited from earlier work"}, "[5]": {"details": "cited from earlier work"}, "[6]": {"test_system": "patients with paroxysmal atrial fibrillation (PAF)", "details": "cited from earlier work"}, "[7]": {"molecular_target": "cytochrome P450 2C9 (CYP2C9) (Homo sapiens, UniProt P11712)", "sequence (P11712 whole entry)": "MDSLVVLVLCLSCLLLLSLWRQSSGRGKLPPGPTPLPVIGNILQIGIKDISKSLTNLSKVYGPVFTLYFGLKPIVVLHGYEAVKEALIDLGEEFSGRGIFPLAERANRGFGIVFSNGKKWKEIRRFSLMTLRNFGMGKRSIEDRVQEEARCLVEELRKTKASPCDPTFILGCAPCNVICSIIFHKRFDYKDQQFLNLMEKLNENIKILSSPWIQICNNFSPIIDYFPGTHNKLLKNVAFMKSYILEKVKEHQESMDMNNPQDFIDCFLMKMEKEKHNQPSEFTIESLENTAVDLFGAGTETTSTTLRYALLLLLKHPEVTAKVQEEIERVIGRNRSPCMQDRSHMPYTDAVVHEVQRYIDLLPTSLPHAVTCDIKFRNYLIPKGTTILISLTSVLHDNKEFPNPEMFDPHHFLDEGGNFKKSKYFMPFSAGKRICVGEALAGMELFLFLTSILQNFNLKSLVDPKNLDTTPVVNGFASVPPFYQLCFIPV", "details": "cited from earlier work"}, "[8]": {"test_system": "patients with paroxysmal atrial fibrillation (PAF)", "details": "12 weeks, cited from earlier work; for median reduction in AFB: compared to placebo"}, "[9]": {"details": "pre-clinical safety testing; cited from earlier work"}, "[10]": {"details": "600 mg BID, Treatment Months 1-3, ITT"}, "[11]": {"details": "600 mg BID, Treatment Months 1-3, mITT"}},
  "note": "Where “and” joins values, the source holds several entries; their conditions need not be identical. Identical values can stand only once. Like-named read-outs stand apart in the source and are kept apart here.",
  "data": [
    {"compound": "CC[C@H](C)OC(=O)Cc1oc2ccccc2c1C(=O)c1cc(I)c(OCCN(CC)CC)c(I)c1", "note": "[budiodarone, (1S)-1-methylpropyl 2-(3-{4-[2-(diethylamino)ethoxy]-3,5-diiodobenzoyl}benzofuran-2-yl)acetate]", "values": [
      {"measurement": "molar ratio above which budiodarone was not fully soluble in water (phase separation)", "setting": "[1]", "result": "approximately 11/1"},
      {"measurement": "lower limit of the molar ratio of benzyl alcohol to budiodarone that forms in solution", "setting": "[1]; 25-100 mg/ml", "result": "approximately 5/1"},
      {"measurement": "remaining concentration of budiodarone", "setting": "[2]; 0.9% saline solution", "result": "< 1", "unit": "mg/mL"},
      {"measurement": "remaining concentration of budiodarone", "setting": "[2]; Acetate buffer pH5.2 (15 mM)", "result": "< 1", "unit": "mg/mL"},
      {"measurement": "remaining concentration of budiodarone", "setting": "[2]; D5W", "result": 26.6, "unit": "mg/mL"},
      {"measurement": "remaining concentration of budiodarone", "setting": "[2]; Phosphate buffer saline pH 7.4 (15 mM)", "result": "< 1", "unit": "mg/mL"},
      {"measurement": "remaining concentration of budiodarone", "setting": "[2]; Tris.HCl buffer pH7.5 (15 mM)", "result": "< 1", "unit": "mg/mL"},
      {"measurement": "time for which the low molar ratio is stable in D5W", "setting": "[3]", "result": "about 120 hours"},
      {"measurement": "mean AFB (SD)", "setting": "[4]; 200 mg bid", "result": "5.2 ± 4.2", "unit": "%"},
      {"measurement": "mean AFB (SD)", "setting": "[4]; 400 mg bid", "result": "5.2+5.2%"},
      {"measurement": "mean AFB (SD)", "setting": "[4]; 600 mg bid", "result": "2.8+3.4%"},
      {"measurement": "mean AFB (SD)", "setting": "[4]; 800 mg bid", "result": "1.5 ± 0.5", "unit": "%"},
      {"measurement": "decrease in AFB", "setting": "[4]; at all doses (200 to 800 mg bid)", "result": "at least 70%"},
      {"measurement": "Mean episode duration (SD)", "setting": "[4]; p2 (200 mg bid)", "result": "1.7+2.5 h"},
      {"measurement": "relative reduction (RR) in AFB from baseline", "setting": "[4]; p2 (200 mg bid)", "result": "71.2 ± 31.3", "unit": "%"},
      {"measurement": "Mean episode duration (SD)", "setting": "[4]; p3 (400 mg bid)", "result": "0.6+0.7 h"},
      {"measurement": "relative reduction (RR) in AFB from baseline", "setting": "[4]; p3 (400 mg bid)", "result": "71.7 ± 20.6", "unit": "%"},
      {"measurement": "Mean episode duration (SD)", "setting": "[4]; p4 (600 mg bid)", "result": "0.1+0.2 h"},
      {"measurement": "relative reduction (RR) in AFB from baseline", "setting": "[4]; p4 (600 mg bid)", "result": "79.9 ± 26.4", "unit": "%"},
      {"measurement": "Mean episode duration (SD)", "setting": "[4]; p5 (800 mg bid)", "result": "0.5+0.7 h"},
      {"measurement": "relative reduction (RR) in AFB from baseline", "setting": "[4]; p5 (800 mg bid)", "result": "86.8 ± 9.8", "unit": "%"},
      {"measurement": "number of AF episodes", "setting": "[4]; treatment periods and washout", "result": "increased initially"},
      {"measurement": "Mean episode duration (SD)", "setting": "[4]; washout", "result": "2.4+3.0 h"},
      {"measurement": "mean AFB (SD)", "setting": "[4]; washout", "result": "11.7+14.0%"},
      {"measurement": "Mean trough level", "setting": "[5]; 200 mg bid oral", "result": "2.4 ± 0.9", "unit": "ng/mL"},
      {"measurement": "Mean trough level", "setting": "[5]; 400 mg bid oral", "result": "5.2 ± 1.7", "unit": "ng/mL"},
      {"measurement": "Mean trough level", "setting": "[5]; 600 mg bid oral", "result": "13.1 ± 5.6", "unit": "ng/mL"},
      {"measurement": "Mean trough level", "setting": "[5]; 800 mg bid oral", "result": "19.8 ± 17.9", "unit": "ng/mL"},
      {"measurement": "trough level", "setting": "[5]; washout", "result": "0.3+0.4 ng/mL"},
      {"measurement": "decrease in AFB", "setting": "[6]; 200 mg BID, mITT population, not statistically significant", "result": 10, "unit": "%"},
      {"measurement": "median percent reduction from baseline in AT/AF burden", "setting": "[6]; 400 mg BID, Treatment Months 1-3, ITT population", "result": 54, "unit": "%"},
      {"measurement": "median percent reduction from baseline in AT/AF burden", "setting": "[6]; 400 mg BID, Treatment Months 1-3, mITT population", "result": 54, "unit": "%"},
      {"measurement": "median percent reduction in AT/AF burden", "setting": "[6]; 600 mg BID, Treatment Month 3, ITT population, listed as ATI-2042", "result": "80% and 83%"},
      {"measurement": "median percent reduction in AT/AF burden", "setting": "[6]; 600 mg BID, Treatment Month 3, mITT population", "result": 83, "unit": "%"},
      {"measurement": "median percent reduction from baseline in AT/AF burden", "setting": "[6]; 600 mg BID, Treatment Months 1-3, ITT population", "result": 74, "unit": "%"},
      {"measurement": "median percent change from baseline in duration of AT/AF episodes", "setting": "[6]; [10]", "result": "−51.3", "unit": "%"},
      {"measurement": "median percent change from baseline in the number of AT/AF episodes", "setting": "[6]; [10]", "result": "−52.9", "unit": "%"},
      {"measurement": "median percent increase in the duration of NSR", "setting": "[6]; [10]", "result": 208.8, "unit": "%"},
      {"measurement": "median percent reduction from baseline in AT/AF burden", "setting": "[6]; 600 mg BID, Treatment Months 1-3, mITT population", "result": 75, "unit": "%"},
      {"measurement": "median percent change from baseline in duration of AT/AF episodes", "setting": "[6]; [11]", "result": "−51.3", "unit": "%"},
      {"measurement": "median percent change from baseline in the number of AT/AF episodes", "setting": "[6]; [11]", "result": "−62.1", "unit": "%"},
      {"measurement": "median percent increase in the duration of NSR", "setting": "[6]; [11]", "result": 241.8, "unit": "%"},
      {"measurement": "decrease in number of AT/AF episodes (median percent change from baseline, FIG. 12)", "setting": "[6]; 600 mg BID, all three treatment months", "result": "more than 60%"},
      {"measurement": "decrease in duration of episodes (FIG. 12)", "setting": "[6]; 600 mg BID, treatment month 1", "result": "more than 50%"},
      {"measurement": "decrease in duration of episodes (FIG. 12)", "setting": "[6]; 600 mg BID, treatment month 2", "result": "more than 70%"},
      {"measurement": "decrease in duration of episodes (FIG. 12)", "setting": "[6]; 600 mg BID, treatment month 3", "result": "~70", "unit": "%"},
      {"measurement": "mean episode duration (FIG. 13)", "setting": "[6]; 600 mg, down from nearly 24", "result": "less than 1 hour"},
      {"measurement": "median AF episode duration", "setting": "[6]; 600 mg, month 3", "result": 0},
      {"measurement": "reduction of number and duration of AF episodes below baseline (FIG. 12)", "setting": "[6]; 600 mg", "result": "about 70%"},
      {"measurement": "patients a lot or completely satisfied with the test medication (Patient GCI Scale)", "setting": "[6]; ITT population, dose group not stated", "result": 60.0, "unit": "%"},
      {"measurement": "patients reporting a lot of improvement or complete relief (Patient GCI Scale)", "setting": "[6]; dose group not stated", "result": 46.7, "unit": "%"},
      {"measurement": "AFB after washout", "setting": "[6]; each of the three dose groups, one-month washout period", "result": "returned to essentially the baseline values"},
      {"measurement": "inhibition of CYP2C9", "setting": "[7]", "result": "inhibitor"},
      {"measurement": "median reduction in AFB", "setting": "[8]; 400 mg BID", "result": 54.4, "unit": "%"},
      {"measurement": "median reduction in AFB", "setting": "[8]; 600 mg BID", "result": 75.5, "unit": "%"},
      {"measurement": "median reduction in AFB", "setting": "[8]; 600 mg BID, listed as Budiodarone", "result": "up to 75.5%"},
      {"measurement": "safety", "setting": "[8]; 200, 400 or 600 mg BID", "result": "no drug-related SAEs"},
      {"measurement": "findings in canine testes", "setting": "[9]", "result": "Non-specific but potentially toxic findings"}
    ]}
  ]
}
